Experiments:
CLK3 = CLK3 (Homo sapiens, UniProt P49761); assay: Selectivity profile (123 kinase panel); type: biochemical
LCK = LCK (Homo sapiens, UniProt P06239); assay: Selectivity profile (123 kinase panel); type: biochemical
DDR2 = DDR2 (Homo sapiens, UniProt Q16832); assay: Selectivity profile (123 kinase panel); type: biochemical
ALK = ALK (Homo sapiens, UniProt Q9UM73); assay: Selectivity profile (123 kinase panel); type: biochemical
NEK2 = NEK2 (Homo sapiens, UniProt P51955); assay: Selectivity profile (123 kinase panel); type: biochemical
DCAMKL1 = DCAMKL1 (Homo sapiens, UniProt O15075); assay: Selectivity profile (123 kinase panel); type: biochemical
MARK2 = MARK2 (Homo sapiens, UniProt Q7KZI7); assay: Selectivity profile (123 kinase panel); type: biochemical
PARP7 = PARP7 (Homo sapiens, UniProt Q7Z3E1); assay: Selectivity profile (other isoforms of PARP and NRP family); type: biochemical
LYNa = LYNa (Homo sapiens, UniProt P07948); assay: Selectivity profile (123 kinase panel); type: biochemical
ABL2 = ABL2 (Homo sapiens, UniProt P42684); assay: Selectivity profile (123 kinase panel); type: biochemical
CK1δ = CK1δ (Homo sapiens, UniProt P48730); assay: Selectivity profile (123 kinase panel); type: biochemical
KIT = KIT (Homo sapiens, UniProt P10721); assay: Selectivity profile (123 kinase panel); type: biochemical
MUSK = MUSK (Homo sapiens, UniProt O15146); assay: Selectivity profile (123 kinase panel); type: biochemical
KHS = KHS (Homo sapiens, UniProt Q9Y4K4); assay: Selectivity profile (123 kinase panel); type: biochemical
CSF1R = CSF1R (Homo sapiens, UniProt P07333); assay: Selectivity profile (123 kinase panel); type: biochemical
MST1 = MST1 (Homo sapiens, UniProt Q13043); assay: Selectivity profile (123 kinase panel); type: biochemical
MER = MER (Homo sapiens, UniProt Q12866); assay: Selectivity profile (123 kinase panel); type: biochemical
MARK4 = MARK4 (Homo sapiens, UniProt Q96L34); assay: Selectivity profile (123 kinase panel); type: biochemical
NEK1 = NEK1 (Homo sapiens, UniProt Q96PY6); assay: Selectivity profile (123 kinase panel); type: biochemical
DAPK1 = DAPK1 (Homo sapiens, UniProt P53355); assay: Selectivity profile (123 kinase panel); type: biochemical
KDR = KDR (Homo sapiens, UniProt P35968); assay: Selectivity profile (123 kinase panel); type: biochemical
PARP15 = PARP15 (Homo sapiens, UniProt Q460N3); assay: Selectivity profile (other isoforms of PARP and NRP family); type: biochemical
PARP15, sequence (Q460N3 whole entry, canonical isoform): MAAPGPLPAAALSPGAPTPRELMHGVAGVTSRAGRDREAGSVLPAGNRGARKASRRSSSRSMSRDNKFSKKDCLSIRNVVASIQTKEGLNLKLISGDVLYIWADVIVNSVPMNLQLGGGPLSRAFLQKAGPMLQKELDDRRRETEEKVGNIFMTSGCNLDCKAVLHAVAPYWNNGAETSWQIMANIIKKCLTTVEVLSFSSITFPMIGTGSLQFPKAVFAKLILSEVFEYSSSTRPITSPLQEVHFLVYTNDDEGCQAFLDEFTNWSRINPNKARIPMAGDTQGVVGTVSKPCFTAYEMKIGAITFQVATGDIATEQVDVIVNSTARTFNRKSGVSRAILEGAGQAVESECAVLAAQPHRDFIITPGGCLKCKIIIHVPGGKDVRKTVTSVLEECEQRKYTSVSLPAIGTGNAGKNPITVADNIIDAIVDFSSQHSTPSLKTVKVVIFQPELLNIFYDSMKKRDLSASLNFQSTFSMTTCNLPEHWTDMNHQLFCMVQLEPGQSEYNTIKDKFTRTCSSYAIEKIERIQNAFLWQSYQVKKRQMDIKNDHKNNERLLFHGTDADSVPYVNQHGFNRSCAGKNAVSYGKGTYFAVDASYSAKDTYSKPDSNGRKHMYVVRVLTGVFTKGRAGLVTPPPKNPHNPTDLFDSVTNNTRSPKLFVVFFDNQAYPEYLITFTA

CLK4 = CLK4 (Homo sapiens, UniProt Q9HAZ1); assay: Selectivity profile (123 kinase panel); type: biochemical
CLK4, sequence (Q9HAZ1 whole entry): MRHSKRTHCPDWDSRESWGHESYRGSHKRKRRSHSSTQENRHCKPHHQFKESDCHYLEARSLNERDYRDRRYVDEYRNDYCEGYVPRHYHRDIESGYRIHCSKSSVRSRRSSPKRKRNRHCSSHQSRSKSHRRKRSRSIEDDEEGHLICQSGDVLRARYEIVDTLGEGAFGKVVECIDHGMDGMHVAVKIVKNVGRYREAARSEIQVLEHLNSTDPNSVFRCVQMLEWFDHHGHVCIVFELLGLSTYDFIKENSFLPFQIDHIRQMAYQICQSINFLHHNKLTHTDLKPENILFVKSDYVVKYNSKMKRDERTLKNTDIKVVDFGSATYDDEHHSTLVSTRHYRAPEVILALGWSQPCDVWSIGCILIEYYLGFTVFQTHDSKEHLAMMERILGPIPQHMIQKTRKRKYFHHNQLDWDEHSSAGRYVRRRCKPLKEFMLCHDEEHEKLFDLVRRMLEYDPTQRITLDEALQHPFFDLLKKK

MINK = MINK (Homo sapiens, UniProt Q8N4C8); assay: Selectivity profile (123 kinase panel); type: biochemical
MINK, sequence (Q8N4C8 whole entry): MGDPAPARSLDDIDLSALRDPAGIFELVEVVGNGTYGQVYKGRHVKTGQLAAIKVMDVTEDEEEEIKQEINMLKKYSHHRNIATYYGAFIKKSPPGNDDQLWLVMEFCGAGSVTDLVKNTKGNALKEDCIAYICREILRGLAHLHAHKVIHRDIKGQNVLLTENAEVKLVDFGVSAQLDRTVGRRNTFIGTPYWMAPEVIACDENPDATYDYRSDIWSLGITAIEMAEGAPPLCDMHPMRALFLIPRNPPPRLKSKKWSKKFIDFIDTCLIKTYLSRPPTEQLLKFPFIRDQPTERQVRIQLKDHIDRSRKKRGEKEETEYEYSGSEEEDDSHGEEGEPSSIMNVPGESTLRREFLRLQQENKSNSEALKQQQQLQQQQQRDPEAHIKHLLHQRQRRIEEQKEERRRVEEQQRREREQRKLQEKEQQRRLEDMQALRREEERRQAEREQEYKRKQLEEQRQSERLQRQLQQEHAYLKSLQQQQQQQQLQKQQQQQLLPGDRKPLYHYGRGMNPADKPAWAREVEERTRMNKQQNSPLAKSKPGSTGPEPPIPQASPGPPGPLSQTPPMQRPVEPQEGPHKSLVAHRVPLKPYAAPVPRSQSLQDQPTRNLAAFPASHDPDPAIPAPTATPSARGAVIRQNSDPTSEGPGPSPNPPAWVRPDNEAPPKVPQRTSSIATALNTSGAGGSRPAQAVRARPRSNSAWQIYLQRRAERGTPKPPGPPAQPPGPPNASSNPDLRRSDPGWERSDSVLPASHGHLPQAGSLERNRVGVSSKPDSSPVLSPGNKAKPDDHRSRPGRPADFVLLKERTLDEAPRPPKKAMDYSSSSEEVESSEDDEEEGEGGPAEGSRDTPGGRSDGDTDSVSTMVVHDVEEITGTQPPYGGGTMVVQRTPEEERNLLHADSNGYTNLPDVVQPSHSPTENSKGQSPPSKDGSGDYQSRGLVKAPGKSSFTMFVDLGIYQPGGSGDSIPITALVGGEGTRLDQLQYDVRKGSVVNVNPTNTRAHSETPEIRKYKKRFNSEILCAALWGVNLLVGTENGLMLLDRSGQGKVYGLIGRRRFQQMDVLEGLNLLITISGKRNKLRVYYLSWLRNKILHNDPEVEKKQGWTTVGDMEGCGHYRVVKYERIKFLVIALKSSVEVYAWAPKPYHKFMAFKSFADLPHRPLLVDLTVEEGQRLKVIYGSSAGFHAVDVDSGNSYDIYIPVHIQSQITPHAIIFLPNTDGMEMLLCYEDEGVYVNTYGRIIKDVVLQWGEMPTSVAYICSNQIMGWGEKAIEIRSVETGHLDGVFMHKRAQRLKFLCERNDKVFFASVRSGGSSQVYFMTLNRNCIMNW

JNK2 = JNK2 (Homo sapiens, UniProt P45984); assay: Selectivity profile (123 kinase panel); type: biochemical
NuaK2 = NuaK2 (Homo sapiens, UniProt Q9H093); assay: Selectivity profile (123 kinase panel); type: biochemical
HIPK4 = HIPK4 (Homo sapiens, UniProt Q8NE63); assay: Selectivity profile (123 kinase panel); type: biochemical
MST3 = MST3 (Homo sapiens, UniProt Q9Y6E0); assay: Selectivity profile (123 kinase panel); type: biochemical
EPHB3 = EPHB3 (Homo sapiens, UniProt P54753); assay: Selectivity profile (123 kinase panel); type: biochemical
FES = FES (Homo sapiens, UniProt P07332); assay: Selectivity profile (123 kinase panel); type: biochemical
PARP2 = PARP2 (Homo sapiens, UniProt Q9UGN5); assay: Selectivity profile (other isoforms of PARP and NRP family); type: biochemical
PARP2, sequence (Q9UGN5 whole entry, canonical isoform): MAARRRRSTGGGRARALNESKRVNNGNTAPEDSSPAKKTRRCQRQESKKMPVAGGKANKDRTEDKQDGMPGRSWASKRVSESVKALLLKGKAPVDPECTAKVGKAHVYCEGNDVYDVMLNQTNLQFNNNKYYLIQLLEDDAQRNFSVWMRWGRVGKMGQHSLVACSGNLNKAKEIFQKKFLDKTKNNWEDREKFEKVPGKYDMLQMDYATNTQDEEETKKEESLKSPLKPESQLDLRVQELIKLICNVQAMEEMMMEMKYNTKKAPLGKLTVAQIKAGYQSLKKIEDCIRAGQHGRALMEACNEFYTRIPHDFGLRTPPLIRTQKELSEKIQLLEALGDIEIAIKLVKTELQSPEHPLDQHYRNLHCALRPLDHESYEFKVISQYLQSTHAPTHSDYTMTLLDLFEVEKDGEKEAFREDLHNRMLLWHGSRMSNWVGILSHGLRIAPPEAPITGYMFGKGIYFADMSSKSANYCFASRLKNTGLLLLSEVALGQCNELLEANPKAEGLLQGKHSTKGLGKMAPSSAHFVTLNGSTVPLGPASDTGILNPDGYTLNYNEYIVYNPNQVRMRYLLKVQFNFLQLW

FLT4 = FLT4 (Homo sapiens, UniProt P35916); assay: Selectivity profile (123 kinase panel); type: biochemical
JAK1 = JAK1 (Homo sapiens, UniProt P23458); assay: Selectivity profile (123 kinase panel); type: biochemical
BRSK2 = BRSK2 (Homo sapiens, UniProt Q8IWQ3); assay: Selectivity profile (123 kinase panel); type: biochemical
PARP8 = PARP8 (Homo sapiens, UniProt Q8N3A8); assay: Selectivity profile (other isoforms of PARP and NRP family); type: biochemical
PARP8, sequence (Q8N3A8 whole entry, canonical isoform): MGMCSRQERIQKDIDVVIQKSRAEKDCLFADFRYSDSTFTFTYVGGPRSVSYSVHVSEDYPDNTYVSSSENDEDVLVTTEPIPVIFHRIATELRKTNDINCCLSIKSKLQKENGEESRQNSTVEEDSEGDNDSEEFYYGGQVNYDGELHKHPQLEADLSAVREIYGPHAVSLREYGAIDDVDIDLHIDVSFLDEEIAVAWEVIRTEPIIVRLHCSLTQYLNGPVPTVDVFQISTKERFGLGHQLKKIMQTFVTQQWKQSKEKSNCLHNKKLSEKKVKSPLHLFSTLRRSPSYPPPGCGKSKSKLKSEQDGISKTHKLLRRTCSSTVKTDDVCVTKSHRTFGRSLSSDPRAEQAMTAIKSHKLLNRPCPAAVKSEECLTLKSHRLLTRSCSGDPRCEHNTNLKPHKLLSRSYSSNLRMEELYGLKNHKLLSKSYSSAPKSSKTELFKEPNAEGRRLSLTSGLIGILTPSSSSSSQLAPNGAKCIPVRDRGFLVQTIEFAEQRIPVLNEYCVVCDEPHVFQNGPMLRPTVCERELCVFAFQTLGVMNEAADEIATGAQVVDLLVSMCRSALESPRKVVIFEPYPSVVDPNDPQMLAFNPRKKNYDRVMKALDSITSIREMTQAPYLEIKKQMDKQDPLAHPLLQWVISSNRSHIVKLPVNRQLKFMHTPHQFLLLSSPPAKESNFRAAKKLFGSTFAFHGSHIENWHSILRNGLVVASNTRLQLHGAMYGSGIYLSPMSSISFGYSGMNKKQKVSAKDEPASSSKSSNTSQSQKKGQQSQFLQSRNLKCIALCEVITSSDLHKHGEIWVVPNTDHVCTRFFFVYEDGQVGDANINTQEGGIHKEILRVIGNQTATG

[1] = In vivo pharmacokinetic studies; parameters: species or system SD rats; details: Sprague-Dawley (SD), rat, plasma, po, 10 mg/kg
Method: Blood samples (0.25 mL) were collected at 0.25, 0.5, 1, 2, 4, 8, 16, and 24 h after administration and centrifuged to obtain the plasma fraction. In a 96-well plate, the plasma sample (50 μL) was transferred, and the internal standard methanol/acetonitrile (1:1, v/v) solution (200 μL) was added. After vortexing for 5 min, the mixture was centrifuged (12,000 rpm, 5 min) and the supernatant was obtained (60.0 μL). Liquid chromatography and tandem mass spectrometry (LC-MS/MS) system was used to study pharmacokinetics. The data were processed by Phoenix.

AurC = AurC (Homo sapiens, UniProt Q9UQB9); assay: Selectivity profile (123 kinase panel); type: biochemical
MRCKα = MRCKα (Homo sapiens, UniProt Q5VT25); assay: Selectivity profile (123 kinase panel); type: biochemical
PARP10 = PARP10 (Homo sapiens, UniProt Q53GL7); assay: Selectivity profile (other isoforms of PARP and NRP family); type: biochemical
FGFR3 = FGFR3 (Homo sapiens, UniProt P22607); assay: Selectivity profile (123 kinase panel); type: biochemical
ALK4 = ALK4 (Homo sapiens, UniProt P36896); assay: Selectivity profile (123 kinase panel); type: biochemical

CLK3, sequence (P49761 whole entry): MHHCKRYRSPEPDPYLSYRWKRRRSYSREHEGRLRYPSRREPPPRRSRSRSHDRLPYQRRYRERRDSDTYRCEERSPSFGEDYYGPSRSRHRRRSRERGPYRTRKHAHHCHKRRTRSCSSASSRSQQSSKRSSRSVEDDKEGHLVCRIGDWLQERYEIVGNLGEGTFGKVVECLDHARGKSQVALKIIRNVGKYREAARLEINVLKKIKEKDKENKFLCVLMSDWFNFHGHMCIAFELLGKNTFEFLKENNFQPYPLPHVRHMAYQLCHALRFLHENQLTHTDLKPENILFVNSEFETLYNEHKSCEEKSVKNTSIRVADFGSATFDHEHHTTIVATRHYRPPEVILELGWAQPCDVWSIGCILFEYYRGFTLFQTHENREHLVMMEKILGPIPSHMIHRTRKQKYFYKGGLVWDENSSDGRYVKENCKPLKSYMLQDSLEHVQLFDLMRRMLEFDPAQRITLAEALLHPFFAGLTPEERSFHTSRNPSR
LCK, sequence (P06239 whole entry): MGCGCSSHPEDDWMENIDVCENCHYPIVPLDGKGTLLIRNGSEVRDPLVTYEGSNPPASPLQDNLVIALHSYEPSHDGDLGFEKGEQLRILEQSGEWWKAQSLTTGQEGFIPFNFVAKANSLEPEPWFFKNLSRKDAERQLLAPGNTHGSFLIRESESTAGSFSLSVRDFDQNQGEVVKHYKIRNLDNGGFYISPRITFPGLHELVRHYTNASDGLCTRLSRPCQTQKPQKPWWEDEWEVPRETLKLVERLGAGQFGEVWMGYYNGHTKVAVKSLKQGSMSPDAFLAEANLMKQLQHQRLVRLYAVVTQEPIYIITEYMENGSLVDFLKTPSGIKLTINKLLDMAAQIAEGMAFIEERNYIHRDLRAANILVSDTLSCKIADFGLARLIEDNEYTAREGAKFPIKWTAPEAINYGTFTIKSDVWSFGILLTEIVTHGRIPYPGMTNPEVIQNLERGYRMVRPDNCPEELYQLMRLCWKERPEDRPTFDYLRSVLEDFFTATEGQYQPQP

SMILES: NC(N)=NCCC[C@H](NCN1CCN(C(=O)c2cc(Cc3n[nH]c(=O)c4ccccc34)ccc2F)CC1)C(=O)O [PPNR-4]
- IC50 (CLK3): > 10 µM
- IC50 (LCK): > 10 µM
- IC50 (DDR2): > 10 µM
- IC50 (ALK): > 10 µM
- IC50 (NEK2): > 10 µM
- IC50 (DCAMKL1): > 10 µM
- IC50 (MARK2): > 10 µM
- IC50 (PARP7): > 10 µM
- IC50 (LYNa): > 10 µM
- IC50 (ABL2): > 10 µM
- IC50 (CK1δ): > 10 µM
- IC50 (KIT): > 10 µM
- IC50 (MUSK): > 10 µM
- IC50 (KHS): > 10 µM
- IC50 (CSF1R): > 10 µM
- IC50 (MST1): > 10 µM
- IC50 (MER): > 10 µM
- IC50 (MARK4): > 10 µM
- IC50 (NEK1): > 10 µM
- IC50 (DAPK1): > 10 µM
- IC50 (KDR): > 10 µM
- IC50 (PARP15): > 10 µM
- IC50 (CLK4): > 10 µM
- IC50 (MINK): > 10 µM
- IC50 (JNK2): > 10 µM
- IC50 (NuaK2): > 10 µM
- IC50 (HIPK4): > 10 µM
- IC50 (MST3): > 10 µM
- IC50 (EPHB3): > 10 µM
- IC50 (FES): > 10 µM
- IC50 (PARP2): > 10 µM
- IC50 (FLT4): > 10 µM
- IC50 (JAK1): > 10 µM
- IC50 (BRSK2): > 10 µM
- IC50 (PARP8): > 10 µM
- bioavailability [1]: 66.5%
- AUC ([1]; SD rats, p.o): 8020 ng·h/mL
- Cmax ([1]; SD rats, p.o): 812 ng/mL
- half-life ([1]; SD rats, p.o): 2.71 h
- IC50 (AurC): > 10 µM
- IC50 (MRCKα): > 10 µM
- IC50 (PARP10): > 10 µM
- IC50 (FGFR3): > 10 µM
- IC50 (ALK4): > 10 µM

Source: PMC11637875, “Discovery of novel PARP1/NRP1 dual-targeting inhibitors with strong antitumor potency” (Frontiers in Pharmacology, 2024)
